# Values quoted from earlier work, collected in patent US20240041893A1, “An Extended-Release Pharmaceutical Formulation of Viloxazine And Process For Preparation Thereof” (Innovate Therapeutics LLC, priority 2023, published 2024).
# System: norepinephrine reuptake
smiles,measurement,value
CCOc1ccccc1OC[C@@H]1CNCCO1 [(S)-(−)-isomer],pharmacological activity relative to the (R)-(+)-isomer,five times
